Test results: patent US9556143B2, “Metalloenzyme inhibitor compounds” (Viamet Pharmaceuticals, Inc., priority 2011, dated 2017)

tested on: Puccinia recondita tritici = Puccinia triticina (PUCCRT); assay: Fungicidal activity vs. wheat leaf rust; assay type: in vivo, Puccinia recondita tritici on wheat (variety Yuma); conditions: % disease control @ 50 ppm, wheat seedlings sprayed, inoculated the following day, severity evaluated 7-9 days later, read-out: Puccinia Rating
Excerpt: D. Evaluation of Fungicidal Activity Vs. Leaf Rust (Causal Agent Puccinia recondita tritici=Puccinia triticina; Bayer code PUCCRT). […] Each pot contained 3-8 seedlings. These plants were sprayed until wet with the formulated test compounds. The compounds were formulated at 50 ppm in 10 vol. % acetone plus 90 vol. % Triton X water (deionized water 99.99 wt %+0.01 wt % Triton X100), giving a “formulated test compound.” Formulated test compounds were applied to plants using a turn table sprayer fitted with two opposing air atomization nozzles which delivered approximately 1500 L/ha of spray volume. On the following day, the leaves were inoculated with an aqueous spore suspension of Puccinia recondita tritici and the plants were kept in high humidity overnight to permit spores to germinate and infect the leaf. The plants were then transferred to a greenhouse until disease developed on untreated control plants. Disease severity was evaluated 7-9 days later, depending on the speed of disease development. In each case of Table 3, the Puccinia rating scale is as follows: […]

SMILES	pest or weed control at 50 ppm [%]
OC(Cn1cnnn1)(c1ccc(F)cc1F)C(F)(F)c1ccc(-c2ccc(Cl)nc2)cn1 (stereo not drawn) [Compound 30, 1-(6′-Chloro-[3,3′-bipyridin]-6-yl)-2-(2,4-difluorophenyl)-1,1-difluoro-3-(1H-tetrazol-1-yl)propan-2-ol]	80 to 100
OC(Cn1cnnn1)(c1ccc(F)cc1F)C(F)(F)c1ccc(Cc2ccccc2)cn1 (stereo not drawn) [Compound 75, 1-(5-Benzylpyridin-2-yl)-2-(2,4-difluorophenyl)-1,1-difluoro-3-(1H-tetrazol-1-yl)propan-2-ol]	80 to 100
OC(Cn1cnnn1)(c1ccc(F)cc1F)C(F)(F)c1ccc(Cc2ccc(OC(F)(F)F)cc2)cn1 (stereo not drawn) [Compound 76, 2-(2,4-Difluorophenyl)-1,1-difluoro-3-(1H-tetrazol-1-yl)-1-(5-(4-(trifluoromethoxy)benzyl)pyridin-2-yl)propan-2-ol]	80 to 100
OC(Cn1cnnn1)(c1ccc(F)cc1F)C(F)(F)c1ccc(Cc2ccc(Cl)cc2)cn1 (stereo not drawn) [Compound 77, 1-(5-(4-Chlorobenzyl)pyridin-2-yl)-2-(2,4-difluorophenyl)-1,1-difluoro-3-(1H-tetrazol-1-yl)propan-2-ol]	80 to 100
N#Cc1ccc(OCc2ccc(C(F)(F)C(O)(Cn3cnnn3)c3ccc(F)cc3F)nc2)cc1 (stereo not drawn) [Compound 79, 4-((6-(2-(2,4-Difluorophenyl)-1,1-difluoro-2-hydroxy-3-(1H-tetrazol-1-yl)propyl)pyridin-3-yl)methoxy)benzonitrile]	80 to 100
OC(Cc1cnco1)(c1ccc(F)cc1F)C(F)(F)c1ccc(Br)cn1 (stereo not drawn) [Compound 83, 1-(5-Bromopyridin-2-yl)-2-(2,4-difluorophenyl)-1,1-difluoro-3-(oxazol-5-yl)propan-2-ol]	80 to 100
N#Cc1ccc(OCc2ccc(C(F)(F)C(O)(Cn3cnnn3)c3ccc(F)cc3F)nc2)c(F)c1 (stereo not drawn) [Compound 88, 4-((6-(2-(2,4-difluorophenyl)-1,1-difluoro-2-hydroxy-3-(1H-tetrazol-1-yl)propyl)pyridin-3-yl)methoxy)-3-fluorobenzonitrile]	80 to 100
N#Cc1cccc(OCc2ccc(C(F)(F)C(O)(Cn3cnnn3)c3ccc(F)cc3F)nc2)c1F (stereo not drawn) [Compound 89, 3-((6-(2-(2,4-difluorophenyl)-1,1-difluoro-2-hydroxy-3-(1H-tetrazol-1-yl)propyl)pyridin-3-yl)methoxy)-2-fluorobenzonitrile]	80 to 100
N#Cc1ccc(SCc2ccc(C(F)(F)C(O)(Cn3cnnn3)c3ccc(F)cc3F)nc2)c(F)c1 (stereo not drawn) [Compound 90, 4-(((6-(2-(2,4-difluorophenyl)-1,1-difluoro-2-hydroxy-3-(1H-tetrazol-1-yl)propyl)pyridin-3-yl)methyl)thio)-3-fluorobenzonitrile]	40 to 59
OC(Cn1cnnn1)(c1ccc(F)cc1F)C(F)(F)c1ccc(COC(F)F)cn1 (stereo not drawn) [Compound 92, 1-(5-((difluoromethoxy)methyl)pyridin-2-yl)-2-(2,4-difluorophenyl)-1,1-difluoro-3-(1H-tetrazol-1-yl)propan-2-ol]	80 to 100
OC(Cn1cnnn1)(c1ccc(F)cc1F)C(F)(F)c1ccc(-c2ccc(Cl)cn2)cn1 (stereo not drawn) [Compound 93, 1-(5-chloro-[2,3′-bipyridin]-6′-yl)-2-(2,4-difluorophenyl)-1,1-difluoro-3-(1H-tetrazol-1-yl)propan-2-ol]	80 to 100
OC(Cn1cnnn1)(c1ccc(F)cc1F)C(F)(F)c1ccc(-c2ccc(C(F)(F)F)cn2)cn1 (stereo not drawn) [Compound 94, 2-(2,4-difluorophenyl)-1,1-difluoro-3-(1H-tetrazol-1-yl)-1-(5-(trifluoromethyl)-[2,3′-bipyridin]-6′-yl)propan-2-ol]	80 to 100
N#Cc1ccc(-c2ccc(C(F)(F)C(O)(Cn3cnnn3)c3ccc(F)cc3F)nc2)nc1 (stereo not drawn) [Compound 95, 6′-(2-(2,4-difluorophenyl)-1,1-difluoro-2-hydroxy-3-(1H-tetrazol-1-yl)propyl)-[2,3′-bipyridin]-5-carbonitrile]	80 to 100
OC(Cn1cnnn1)(c1ccc(F)cc1F)C(F)(F)c1ccc(-c2ccncc2)cn1 (stereo not drawn) [Compound 96, 1-([3,4′-bipyridin]-6-yl)-2-(2,4-difluorophenyl)-1,1-difluoro-3-(1H-tetrazol-1-yl)propan-2-ol]	60 to 79
N#Cc1ccc(OCc2ccc(C(F)(F)C(O)(Cn3cnnn3)c3ccc(F)cc3F)nc2)nc1 (stereo not drawn) [Compound 98, 6-((6-(2-(2,4-difluorophenyl)-1,1-difluoro-2-hydroxy-3-(1H-tetrazol-1-yl)propyl)pyridin-3-yl)methoxy)nicotinonitrile]	80 to 100
OC(Cn1cnnn1)(c1ccc(F)cc1F)C(F)(F)c1ccc(COc2ccc(C(F)(F)F)cn2)cn1 (stereo not drawn) [Compound 99, 2-(2,4-difluorophenyl)-1,1-difluoro-3-(1H-tetrazol-1-yl)-1-(5-(((5-(trifluoromethyl)pyridin-2-yl)oxy)methyl)pyridin-2-yl)propan-2-ol]	80 to 100
OC(Cn1cnnn1)(c1ccc(F)cc1F)C(F)(F)c1ccc(COc2ncc(C(F)(F)F)cc2Cl)cn1 (stereo not drawn) [Compound 100, 1-(5-(((3-chloro-5-(trifluoromethyl)pyridin-2-yl)oxy)methyl)pyridin-2-yl)-2-(2,4-difluorophenyl)-1,1-difluoro-3-(1H-tetrazol-1-yl)propan-2-ol]	80 to 100
OC(Cn1cnnn1)(c1ccc(F)cc1F)C(F)(F)c1ccc(C(F)(F)c2ccc(F)cc2)cn1 (stereo not drawn) [Compound 101, 1-(5-(difluoro(4-fluorophenyl)methyl)pyridin-2-yl)-2-(2,4-difluorophenyl)-1,1-difluoro-3-(1H-tetrazol-1-yl)propan-2-ol]	80 to 100
OC(Cn1cnnn1)(c1ccc(F)cc1F)C(F)(F)c1ccc(C(F)(F)c2ccc(C(F)(F)F)cc2)cn1 (stereo not drawn) [Compound 102, 1-(5-(difluoro(4-(trifluoromethyl)phenyl)methyl)pyridin-2-yl)-2-(2,4-difluorophenyl)-1,1-difluoro-3-(1H-tetrazol-1-yl)propan-2-ol]	80 to 100
N#Cc1ccc(C(F)(F)c2ccc(C(F)(F)C(O)(Cn3cnnn3)c3ccc(F)cc3F)nc2)cc1 (stereo not drawn) [Compound 103, 4-((6-(2-(2,4-difluorophenyl)-1,1-difluoro-2-hydroxy-3-(1H-tetrazol-1-yl)propyl)pyridin-3-yl)difluoromethyl)benzonitrile]	80 to 100

tested on: Septoria tritici (ATCC 26517); assay: Minimum Inhibitory Concentration (MIC) (Septoria tritici), CLSI-based microdilution; assay type: cell-based; conditions: Zymoseptoria tritici, ATCC26517, 168 h, MIC class; 50% reduction in growth of S. tritici; 7 days at 22 °C; read-out: Septoria Rating
Experimental: C. Minimum Inhibitory Concentration (MIC) (Septoria tritici) Compounds of the present disclosure were assessed for their ability to inhibit the growth of a common strain of the fungal plant pathogen Septoria tritici (ATCC 26517) using a procedure based on a Clinical and Laboratory Standards Institute (CLSI) microdilution assay protocol for filamentous fungi. Stock solutions of the test compounds and standards were prepared in DMSO at 6400 μg/mL. Each stock solution was used to prepare a 2-fold dilution series ranging from 16 to 0.016 μg/mL (total of 11 compound concentrations) in RPMI-1640 (Roswell Park Memorial Institute) medium containing 3-(N-morpholino)propanesulfonic acid (MOPS) buffer and 2% DMSO. A 100 μL aliquot of the dilutions was added to columns 1 (16 μg/mL compound) through 11 (0.016 μg/mL compound) of a 96-well microtiter plate. This format was replicated in a second row of the microtiter plate. Thus, each microtiter plate could include 11 concentrations of four test or control compounds replicated twice. A 100 μL aliquot of RPMI-1640/MOPS/2% DMSO medium was added to column 12 (no compound control) of the microtiter plate. A fresh culture of S. tritici was used to prepare a solution of approximately 5×10^4 colony-forming units per milliliter (cfu/mL) in RPMI/MOPS medium without DMSO. A 100 μL aliquot of this solution was added to all 96 wells in the microtiter plate. […]

MIC [µg/mL]	SMILES
≤ 0.5	OC(Cn1cnnn1)(c1ccc(F)cc1F)C(F)(F)c1ccc(-c2ccc(Cl)nc2)cn1 (stereo not drawn) [Compound 30, 1-(6′-Chloro-[3,3′-bipyridin]-6-yl)-2-(2,4-difluorophenyl)-1,1-difluoro-3-(1H-tetrazol-1-yl)propan-2-ol]
